According to publication PMC9714576, “Cell-penetrating peptide-conjugated copper complexes for redox-mediated anticancer therapy” (Frontiers in Pharmacology, 2022):

Experiments:
HeLa cells = experiment: Cell-viability assay (PrestoBlue); assay type: cell-based, Human; conditions: 24 h treatment, normalized for Cu concentration, mean ± SD, N ≥ 3
Description: (§1) Human cancer cells (cervix: HeLa; and breast: MCF7) were obtained from American Type Culture Collection (ATCC, Manassas, VA, United States). Cells were routinely cultured with DMEM (Dulbecco’s modified Eagle’s medium, Invitrogen) for HeLa, and with DMEM/F-12 (Dulbecco’s MEM/Nutrient Mixture F-12 Ham, Invitrogen) for MCF7, both supplemented with 10% heat-inactivated fetal bovine serum (FBS, Invitrogen) at 37°C in a humidified 5% CO2 atmosphere.
(§2) HeLa and MFC7 cells were seeded into a 96-well plate at a cell density of 3·10^3 cells/well in 100 µL of culture medium and allowed to grow overnight. The next day, the C1-C5 complexes were added to cells at a range concentration of 0–200 μM. […] The growth inhibitory effect of the complexes was measured at 24 h using the PrestoBlue Cell Reagent (Life Technologies) assay. […] After 2 h incubation (37°C, 5% CO2), the fluorescence of each well was measured at 572 nm after excitation at 531 nm with a Microplate Reader Victor3 (Perkin Elmer). Cytotoxicity was evaluated by relative cell viability (%) for each sample related to the control well. The IC50 values were calculated from the obtained cell viability results. […] Cells were allowed then to evolve until a total incubation time of 72 h and the cell viability was measured with PrestoBlue®, as beforehand detailed.

MCF7 cells = experiment: Cell-viability assay (PrestoBlue); assay type: cell-based, Human; conditions: MCF7, 24 h treatment, normalized for Cu concentration, mean ± SD, N ≥ 3
Description: as §1, §2

[1] = Ascorbate consumption experiment (ROS-generation capability, UV-vis); conditions: ascorbic acid 100 µM, complex 2 µM, 50 mM NaCl/5 mM TRIS-HCl pH 7.2, max 5% DMSO, UV-vis at 265 nm
Description: All the spectra were recorded at room temperature either on an Agilent HP 8453, a Varian Cary 50 Bio, a Varian Cary 60 Bio or a Perkin Elmer Lambda 650 spectrophotometer, using 1 cm quart-cuvettes. Ascorbate consumption experiments were monitored by UV-vis at the maximum absorption band of the ascorbic acid (100 µM) at 265 nm for about 45 min. CuCl2 and the assayed complexes C1-C3 were added at a final concentration of 2 µM in 50 mM NaCl/5 mM TRIS-HCl buffer (pH 7.2), with a maximum of 5% of DMSO.
Prior to biological evaluation, and after proving that the new C2-C5 Cu(II) complexes hold the same metallic core as C1, the impact of the ligand substituents on their catalytic properties, and therefore, ROS-generating capabilities ([Peña et al., 2021]), were confirmed with the two simplest functionalized Cu(II) compounds (C2 and C3), as model compounds bearing oppositely-charged functional moieties. The consumption of ascorbate was measured by UV-vis spectroscopy, monitoring its characteristic absorbance at 265 nm. The correlation of ascorbate consumption with the generation of ROS has proven to be a reliable method to effectively monitor ROS production ([Alies et al., 2013]; [Chassaing et al., 2013]).

Compound: [Cl][Cu][Cl] [CuCl2, copper(II) chloride]
- IC50 (HeLa cells): ≥ 200 µM
- IC50 (MCF7 cells): ≥ 200 µM
- Time to (almost) total ascorbate consumption [1]: ~20 min
